Laboratory results: PubChem BioAssay AID256 (DTP/NCI, 2004)
Toxic doses and inconclusive results are not listed. Rule for the calls: active = survival T/C of 150% or more; inactive = T/C below 125% in these data.

Tested on: CD2F1 mice, L1210 leukemia ip, survival T/C
Test: NCI In Vivo Anticancer Drug Screen. Data for tumor model L1210 Leukemia (intraperitoneal) in CD2F1 (CDF1) mice
Conditions: endpoint: mean survival time, schedule: Q01DX001 (ip), vehicle: Klucel (hydroxypropylcellulose) (HPC), higher = longer survival
Procedure, shortened: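 In this screen, transplantable tumors were grown in mice given either the compound or its vehicle. Results were expressed as the treated measurement relative to the control measurement.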

Measured: T/C

c1ccc(N=C2SCCS2)cc1
inactive: dose: 3.13 mg/kg/injection 93 % of control | dose: 6.25 mg/kg/injection 97 % of control | dose: 12.5 mg/kg/injection 108 % of control
